Source: patent publication US20260176262A1, “KRAS INHIBITORS, PREPARATION METHOD THEREFOR, AND PHARMACEUTICAL USE THEREOF” (ABBISKO THERAPEUTICS CO., LTD., priority 2021, published 2026)
Read-outs that look alike come from different tables or passages of the source.

Tests used:
[1] = target: KRAS^G12D/cRAF (Homo sapiens, UniProt P01116, G12D); experiment: KRAS G12D/cRAF binding test (Alphalisa); details: His-tagged KRAS G12D + GMPPNP, GST-tagged cRAF
Protocol: The compound was dissolved in 100% DMSO at a starting concentration of 5 mM and diluted in DMSO with a 3-fold serial dilution method for a total of 8 concentration points. 1 μL of the compound or DMSO at each concentration point was added into 99 μL of the experimental buffer to obtain 10× stock solution.
• 1) 4 μL of the working mixture solution of His-tagged KRAS^G12D and GMPPNP was added to the 384-well plate. • 2) The 10× compound stock solution or 1% DMSO was added to the 384-well plate. • 3) The plate was centrifuged at 1000 rpm for 1 minute. • 4) 4 μL of GST-tagged cRAF solution was added to the 384-well plate. • 5) The plate was centrifuged at 1000 rpm for 1 minute. • 6) The plate was incubated at room temperature for 15 minutes. • 7) 10 μL of detection working solution was added to the 384-well plate. • 8) The plate was centrifuged at 1000 rpm for 1 minute. • 9) The plate was incubated at room temperature for 60 minutes. • 10) The 384-well plate was placed into Envision and assay data was obtained.
(§1) The ratio for each compound concentration was calculated from the signal of the DMSO control group contained in each assay plate and the Alphalisa signal in each compound well. The compound concentration required for inhibitory concentration at 50% (IC50) was determined using a four-parameter logarithmic dose-response equation by testing the concentration of the compound and the value of the ratio. The endpoint value (IC50) of the reference compound was assessed in each experiment as a quality control measure. If the endpoint value is within three times the expected value, the experiment may be considered acceptable.

[2] = tested on: AGS cell; experiment: Anti-proliferative 2D CTG assay, AGS cells; assay type: cell-based; details: Homo sapiens, 72 h, AGS cells, incubated 3 days, CTG, read-out: AGS cell IC50
Protocol: When the cell confluence was about 80%, the cells were isolated with 0.25% trypsin. Isolated cells were resuspended in 5 mL fresh cell culture medium and centrifuged for cell collection. Meanwhile, the number of cells was also calculated. The cells were then suspended in culture medium of medium concentration. The cells were placed into a 96-well plate with 1000 cells/well for AGS and 1000 cells/well for GP2D. The 96-well plate was placed in an incubator at 37° C. and incubated overnight.
1.2 Day 1 Compound Treatment From the 10 mM stock solution, with a ratio of 1:5, 10-point serial dilutions were performed. The 10× medium containing the compound was transferred into corresponding wells of the 96 wells. The final maximum compound concentration was […] and the final DMSO concentration was 0.1%. The 96-well plate was placed in a 37° C. incubator, the AGS cells were incubated for 3 days, and the GP2D cells were incubated for 4 days.
50 μL/well of detection reagent (CTG) was added to the AGS cells, and the signal was read in an Envision machine.
as §1, with “The percent inhibition (%) at” for “The ratio for”, “signal in” for “signal of”, “the HPE and ZPE” for “the DMSO”, “control wells and the fluorescence signal in the individual compound wells included” for “control group contained”, “assay plate. […]” for “assay plate and the Alphalisa signal in each compound well.”, “the inhibition percentage value.” for “the value of the ratio.”

Chain of KRAS^G12D/cRAF (P01116 1-188 isoform P01116-2 G12D): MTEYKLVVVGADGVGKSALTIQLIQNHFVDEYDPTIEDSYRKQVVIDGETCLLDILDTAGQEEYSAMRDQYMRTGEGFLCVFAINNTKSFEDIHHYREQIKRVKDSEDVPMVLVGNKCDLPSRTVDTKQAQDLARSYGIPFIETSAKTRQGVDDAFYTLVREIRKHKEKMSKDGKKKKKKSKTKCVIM

Compound | IC50 ([1]; numeric values) [nM] | IC50 ([2]; numeric values) [nM] | IC50 ([1]; class symbols) [nM] | IC50 ([2]; class symbols) [nM]
C#Cc1c(F)ccc2cc(O)cc(-c3ncc4c(N5C[C@H]6CC[C@@](CC)(C5)N6)nc(OC[C@@]56CCCN5C[C@H](F)C6)nc4c3F)c12 [Example 53, 4-(4-((1S,5R)-1-ethyl-3,8-diazabicyclo[3.2.1]octan-3-yl)-8-fluoro-2-(((2R,7aS)-2-fluorotetrahydro-1H-pyrrolizin-7a(5H)-yl)methoxy)pyrido[4,3-d]pyrimidin-7-yl)-5-eth ynyl-6-fluoronaphthalen-2-ol] | 221 | 708 |  | 
C#Cc1c(F)ccc2cc(O)cc(-c3ncc4c(N5CC6CCC(CCOC)(C5)N6)nc(OC[C@@]56CCCN5C[C@H](F)C6)nc4c3F)c12 (stereo partly drawn) [Example 9, 5-ethynyl-6-fluoro-4-(8-fluoro-2-(((2R,7aS)-2-fluorotetrahydro-1H-pyrrolizin-7a(5H)-yl)methoxy)-4-(1-(2-methoxyethyl)-3,8-diazabicyclo[3.2.1]octan-3-yl)pyrido[4,3-d]pyrimidin-7-yl) naphthalen-2-ol] |  |  | 50 to 500 | 50 to 500
C#Cc1c(F)ccc2cc(O)cc(-c3ncc4c(N5CC6CCC(C(=O)OC)(C5)N6)nc(OC[C@@]56CCCN5C[C@H](F)C6)nc4c3F)c12 (stereo partly drawn) [Example 23, methyl 3-(7-(8-ethynyl-7-fluoro-3-hydroxynaphthalen-1-yl)-8-fluoro-2-(((2R,7aS)-2-fluorotetrahydro-1H-pyrrolizin-7a(5H)-yl)methoxy)pyrido[4,3-d]pyrimidin-4-yl)-3,8-diazabicyclo[3.2.1] octan-1-carboxylate] |  |  | 50 to 500 | 50 to 500
C#Cc1c(F)ccc2cc(O)cc(-c3ncc4c(N5CC6CCC(CS(C)(=O)=O)(C5)N6)nc(OC[C@@]56CCCN5C[C@H](F)C6)nc4c3F)c12 (stereo partly drawn) [Example 11, 5-ethynyl-6-fluoro-4-(8-fluoro-2-(((2R,7aS)-2-fluorotetrahydro-1H-pyrrolizin-7a(5H)-yl)methoxy)-4-(1-((methanesulfonyl)methyl)-3,8-diazabicyclo[3.2.1]octan-3-yl)pyrido[4,3-d]pyrimidin-7-yl)naphthalen-2-ol] |  |  | > 500 | > 500
C#Cc1c(F)ccc2cc(O)cc(-c3ncc4c(N5CC6CCC(C(=O)O)(C5)N6)nc(OC[C@@]56CCCN5C[C@H](F)C6)nc4c3F)c12 (stereo partly drawn) [Example 22, 3-(7-(8-ethynyl-7-fluoro-3-hydroxynaphthalen-1-yl)-8-fluoro-2-(((2R,7aS)-2-fluorotetrahydro-1H-pyrrolizin-7a(5H)-yl)methoxy)pyrido[4,3-d]pyrimidin-4-yl)-3,8-diazabicyclo[3.2.1] octan-1-carboxylic acid] |  |  | 50 to 500 | > 500
[2H]C([2H])([2H])OC[C@]12CC[C@H](CN(c3nc(OC[C@@]45CCCN4C[C@H](F)C5)nc4c(F)c(-c5cc(O)cc6ccc(F)c(C#C)c56)nc(OCC)c34)C1)N2 [Example 37, 4-(5-ethoxy-8-fluoro-2-(((2R, 7aS)-2-fluorotetrahydro-1H-pyrrolizin-7a(5H)-yl)methoxy)-4-((1S,5R)-1-((methoxy-d3)methyl)-3,8-diazabicyclo [3.2.1]octan-3-yl)pyrido [4,3-d]pyrimidin-7-yl)-5-ethynyl-6-fluoronaphthalen-2-ol] |  |  | 50 to 500 | < 50
C#Cc1c(F)ccc2cc(O)cc(-c3ncc4c(N5CC6CCC(CCF)(C5)N6)nc(OC[C@@]56CCCN5C[C@H](F)C6)nc4c3F)c12 (stereo partly drawn) [Example 8, 5-ethynyl-6-fluoro-4-(8-fluoro-4-(1-(2-fluoroethyl)-3,8-diazabicyclo[3.2.1]octan-3-yl)-2-(((2R,7aS)-2-fluorotetrahydro-1H-pyrrolizin-7a(5H)-yl)methoxy)pyrido[4,3-d]pyrimidin-7-yl) naphthalen-2-ol] |  |  | < 50 | < 50
C#Cc1c(F)ccc2cc(O)cc(-c3ncc4c(N5CC6CCC(CC)(C5)N6)nc(OC[C@@]56CCCN5C[C@H](F)C6)nc4c3F)c12 (stereo partly drawn) [Example 19, 4-(4-(1-ethyl-3,8-diazabicyclo[3.2.1]octan-3-yl)-8-fluoro-2-(((2R,7aS)-2-fluorotetrahydro-1H -pyrrolizin-7a(5H)-yl)methoxy)pyrido[4,3-d]pyrimidin-7-yl)-5-ethynyl-6-fluoronaphthalen-2-ol] |  |  | 50 to 500 | < 50
[2H]C([2H])([2H])OCC12CCC(CN(c3nc(OC[C@@]45CCCN4C[C@H](F)C5)nc4c(F)c(-c5cc(O)cc6cc(F)c(F)c(C#C)c56)ncc34)C1)N2 (stereo partly drawn) [Example 15, 5-ethynyl-6,7-difluoro-4-(8-fluoro-2-(((2R,7aS)-2-fluorotetrahydro-1H-pyrrolizin-7a(5H)-yl)methoxy)-4-(1-((methoxy-d3)methyl)-3,8-diazabicyclo[3.2.1]octan-3-yl)pyrido[4,3-d]pyrimidin-7-yl)naphthalen-2-ol] |  |  | 50 to 500 | 50 to 500
[2H]C12CCC(COC([2H])([2H])[2H])(CN(c3nc(OC[C@@]45CCCN4C[C@H](F)C5)nc4c(F)c(-c5cc(O)cc6ccc(F)c(C#C)c56)ncc34)C1)N2 (stereo partly drawn) [Example 3, 5-ethynyl-6-fluoro-4-(8-fluoro-2-(((2R,7aS)-2-fluorotetrahydro-1H-pyrrolizin-7a(5H)-yl)methoxy)-4-(1-((methoxy-d3)methyl)-3,8-diazabicyclo [3.2.1]octan-3-yl-5-d)pyrido [4,3-d]pyrimidin-7-yl)naphthalen-2-ol] |  |  |  | < 50
C#Cc1c(F)ccc2cc(O)cc(-c3ncc4c(N5C[C@@H]6CC[C@](CCF)(C5)N6)nc(OC[C@@]56CCCN5C[C@H](F)C6)nc4c3F)c12 [Example 56, 5-ethynyl-6-fluoro-4-(8-fluoro-4-((1S,5S)-1-(2-fluoroethyl)-3,8-diazabicyclo[3.2.1]octan-3-yl)-2-(((2R,7aS)-2-fluorotetrahydro-1H-pyrrolizin-7a(5H)-yl)methoxy)pyrido[4,3-d]pyrimidin-7-yl)naphthalen-2-ol] |  |  |  | < 50
C#Cc1c(F)ccc2cc(O)cc(-c3ncc4c(N5CC6CCC(C(C)O)(C5)N6)nc(OC[C@@]56CCCN5C[C@H](F)C6)nc4c3F)c12 (stereo partly drawn) [Example 13, 5-ethynyl-6-fluoro-4-(8-fluoro-2-(((2R,7aS)-2-fluorotetrahydro-1H-pyrrolizin-7a(5H)-yl)methoxy)-4-(1-(1-hydroxyethyl)-3,8-diazabicyclo[3.2.1]octan-3-yl)pyrido[4,3-d]pyrimidin-7-yl) naphthalen-2-ol] |  |  |  | 50 to 500
C#Cc1c(F)ccc2cc(O)cc(-c3ncc4c(N5C[C@H]6CC[C@@](COC)(C5)N6)nc(OC[C@@]56CCCN5C[C@H](F)C6)nc4c3F)c12 [Example 45, 5-ethynyl-6-fluoro-4-(8-fluoro-2-(((2R,7aS)-2-fluorotetrahydro-1H-pyrrolizin-7a(5H)-yl)methoxy)-4-((1S,5R)-1-(methoxymethyl)-3,8-diazabicyclo[3.2.1]octan-3-yl)pyrido[4,3-d]pyrimidin-7-yl)naphthalen-2-ol] |  |  | > 500 | 
[2H]C([2H])([2H])OCC12CCC(CN(c3nc(OC[C@@]45CCCN4C[C@H](F)C5)nc4c(F)c(-c5cc(O)cc6cc(C)c(F)c(C#C)c56)ncc34)C1)N2 (stereo partly drawn) [Example 17, 5-ethynyl-6-fluoro-4-(8-fluoro-2-(((2R,7aS)-2-fluorotetrahydro-1H-pyrrolizin-7a(5H)-yl)methoxy)-4-(1-((methoxy-d3)methyl)-3,8-diazabicyclo[3.2.1]octan-3-yl)pyrido[4,3-d]pyrimidin-7-yl)-7-methylnaphthalen-2-ol] |  |  |  | > 500
